Experimental data taken from PMC7842274 (ACS catalysis, 2020).

How the values were obtained:
[1] = target: PmHS2 (Pasteurella multocida, UniProt Q5SGE1); assay: apparent kinetics; format: biochemical; conditions: alpha1-4-GlcNAcT activity (acceptor; donor not stated in main text)
[2] = target: Δ80PmHS2 (Pasteurella multocida, UniProt Q5SGE1); assay: apparent kinetics; format: biochemical; conditions: alpha1-4-GlcNAcT activity (acceptor; donor not stated in main text)

## GlcAβ2AA
[1]
  Km: 4 ± 0.6 mM
[2]
  Km: 5.3 ± 0.7 mM
